Converted amounts (≈) assume the structure as drawn.
What was measured:
Test in all cases: minimal inhibitory concentration, two-fold agar dilution
Format in all cases: cell-based
[1] = system: Acinetobacter calcoaceticus ATCC 15437; settings: ATCC15437, Muller-Hinton agar, 37°C, 20 hours, read-out: MIC values against the standard strains
Method in brief: (§1)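 Compounds were serially diluted two-fold into Mueller-Hinton agar, and each plate was spot-inoculated with the test strain at 10⁷ CFU per ml. Plates were incubated at 37°C for 20 hours before MIC values were read.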

[2] = system: Bacillus cereus ATCC 11778; settings: ATCC11778, Muller-Hinton agar, 37°C, 20 hours, read-out: MIC values against the standard strains
Method in brief: as §1

[3] = system: Bacillus megaterium ATCC 9885; settings: Priestia megaterium, ATCC9885; Muller-Hinton agar; 37°C; 20 hours; read-out: MIC values against the standard strains
Method in brief: as §1

[4] = system: Citrobacter freundii ATCC 8090; settings: ATCC8090, Muller-Hinton agar, 37°C, 20 hours, read-out: MIC values against the standard strains
Method in brief: as §1

[5] = system: Enterobacter aerogenes ATCC 29751; settings: Klebsiella aerogenes, ATCC29751; Muller-Hinton agar; 37°C; 20 hours; read-out: MIC values against the standard strains
Method in brief: as §1

[6] = system: Enterobacter cloacae ATCC 27508; settings: ATCC27508, Muller-Hinton agar, 37°C, 20 hours, read-out: MIC values against the standard strains
Method in brief: as §1

[7] = system: Escherichia coli ATCC 10536; settings: ATCC10536, Muller-Hinton agar, 37°C, 20 hours, read-out: MIC values against the standard strains
Method in brief: as §1

[8] = system: Escherichia coli ATCC 25922; settings: ATCC25922, Muller-Hinton agar, 37°C, 20 hours, read-out: MIC values against the standard strains
Method in brief: as §1

[9] = system: Klebsiella pneumoniae ATCC 10031; settings: ATCC10031, Muller-Hinton agar, 37°C, 20 hours, read-out: MIC values against the standard strains
Method in brief: as §1

[10] = system: Micrococcus luteus ATCC 9341; settings: ATCC9341, Muller-Hinton agar, 37°C, 20 hours, read-out: MIC values against the standard strains
Method in brief: as §1

[11] = system: Morganella morganii ATCC 8076h; settings: ATCC8076H, Muller-Hinton agar, 37°C, 20 hours, read-out: MIC values against the standard strains
Method in brief: as §1

[12] = system: Proteus mirabilis ATCC 25933; settings: ATCC25933, Muller-Hinton agar, 37°C, 20 hours, read-out: MIC values against the standard strains
Method in brief: as §1

[13] = system: Proteus vulgaris ATCC 6059; settings: ATCC6059, Muller-Hinton agar, 37°C, 20 hours, read-out: MIC values against the standard strains
Method in brief: as §1

[14] = system: Providencia rettgeri ATCC 9250; settings: ATCC9250, Muller-Hinton agar, 37°C, 20 hours, read-out: MIC values against the standard strains
Method in brief: as §1

[15] = system: Pseudomonas aeruginosa ATCC 10145; settings: ATCC10145, Muller-Hinton agar, 37°C, 20 hours, read-out: MIC values against the standard strains
Method in brief: as §1

[16] = system: Pseudomonas aeruginosa ATCC 25619; settings: ATCC25619, Muller-Hinton agar, 37°C, 20 hours, read-out: MIC values against the standard strains
Method in brief: as §1

[17] = system: Pseudomonas aeruginosa ATCC 27853; settings: ATCC27853, Muller-Hinton agar, 37°C, 20 hours, read-out: MIC values against the standard strains
Method in brief: as §1

[18] = system: Salmonella typhimurium ATCC 14028; settings: Salmonella enterica; Muller-Hinton agar; 37°C; 20 hours; read-out: MIC values against the standard strains
Method in brief: as §1

[19] = system: Serratia marcescens ATCC 27117; settings: ATCC27117, Muller-Hinton agar, 37°C, 20 hours, read-out: MIC values against the standard strains
Method in brief: as §1

[20] = system: Shigella flexneri ATCC 11836; settings: ATCC11836, Muller-Hinton agar, 37°C, 20 hours, read-out: MIC values against the standard strains
Method in brief: as §1

[21] = system: Shigella sonnei ATCC 11060; settings: ATCC11060, Muller-Hinton agar, 37°C, 20 hours, read-out: MIC values against the standard strains
Method in brief: as §1

[22] = system: Staphylococcus aureus ATCC 10537; settings: ATCC10537, Muller-Hinton agar, 37°C, 20 hours, read-out: MIC values against the standard strains
Method in brief: as §1

[23] = system: Staphylococcus aureus ATCC 6538p; settings: ATCC6538P, Muller-Hinton agar, 37°C, 20 hours, read-out: MIC values against the standard strains
Method in brief: as §1

[24] = system: Staphylococcus epidermidis ATCC 12228; settings: ATCC12228, Muller-Hinton agar, 37°C, 20 hours, read-out: MIC values against the standard strains
Method in brief: as §1

[25] = system: Streptococcus faecalis ATCC 29212; settings: Enterococcus faecalis, ATCC29212; Muller-Hinton agar; 37°C; 20 hours; read-out: MIC values against the standard strains
Method in brief: as §1

With `CCO/N=C(\C(=O)N[C@@H]1C(=O)N2C(C(=O)[O-])=C(CSc3nc(N)cc[n+]3CC)CS[C@H]12)c1csc(N)n1` [Example 14, 7-[(Z)-2-(2-aminothiazol-4-yl)-2-(ethoxyimino)acetamido]-3-(4-amino-1-ethylpyrimidinium-2-yl)thiomethyl-3-cephem-4-carboxylate] as the compound, how does the MIC [1] read?
The MIC was 16 µg/mL (≈ 28.3 µM).

And the MIC [2]?
The MIC was 32 µg/mL (≈ 56.7 µM).

What about the MIC [3] of the same compound?
Its MIC is 0.25 µg/mL (≈ 0.443 µM).

What about the MIC [4] of the same compound?
Its MIC is 0.13 µg/mL (≈ 0.23 µM).

And the MIC [5]?
The MIC was 1 µg/mL (≈ 1.77 µM).

What about the MIC [6] of the same compound?
The MIC was 0.13 µg/mL (≈ 0.23 µM).

And the MIC [7]?
Its MIC is 0.13 µg/mL (≈ 0.23 µM).

What about the MIC [8] of the same compound?
The MIC was 0.063 µg/mL (≈ 0.112 µM).

What about the MIC [9] of the same compound?
The MIC was 0.13 µg/mL (≈ 0.23 µM).

What about the MIC [10] of the same compound?
The MIC was 0.25 µg/mL (≈ 0.443 µM).

What about the MIC [11] of the same compound?
The MIC was 0.13 µg/mL (≈ 0.23 µM).

And the MIC [12]?
The MIC was 2 µg/mL (≈ 3.54 µM).

What about the MIC [13] of the same compound?
The MIC was 2 µg/mL (≈ 3.54 µM).

And the MIC [14]?
The MIC was 0.063 µg/mL (≈ 0.112 µM).

And the MIC [15]?
The MIC was 64 µg/mL (≈ 113 µM).

And the MIC [16]?
The MIC was 8 µg/mL (≈ 14.2 µM).

What about the MIC [17] of the same compound?
Its MIC is 32 µg/mL (≈ 56.7 µM).

And the MIC [18]?
The MIC was 1 µg/mL (≈ 1.77 µM).

What about the MIC [19] of the same compound?
The MIC was 1 µg/mL (≈ 1.77 µM).

And the MIC [20]?
Its MIC is 0.25 µg/mL (≈ 0.443 µM).

And the MIC [21]?
The MIC was 0.25 µg/mL (≈ 0.443 µM).

What about the MIC [22] of the same compound?
The MIC was 0.25 µg/mL (≈ 0.443 µM).

What about the MIC [23] of the same compound?
Its MIC is 0.5 µg/mL (≈ 0.885 µM).

And the MIC [24]?
Its MIC is 0.25 µg/mL (≈ 0.443 µM).

And the MIC [25]?
Its MIC is greater than 128 µg/mL.

`CCO/N=C(\C(=O)N[C@@H]1C(=O)N2C(C(=O)[O-])=C(CSc3nc(N)cc[n+]3CC)CS[C@H]12)c1nsc(N)n1` [Example 16, 7-[(Z)-2-(5-amino-1,2,4-thiadiazol-3-yl)-2-(ethoxyimino)acetamido]-3-(4-amino-1-ethylpyrimidinium-2-yl)thiomethyl-3-cephem-4-carboxylate] was tested. Which MIC [1] did it give?
Its MIC is 8 µg/mL (≈ 14.1 µM).

And the MIC [2]?
The MIC was 64 µg/mL (≈ 113 µM).

What about the MIC [3] of the same compound?
The MIC was 0.5 µg/mL (≈ 0.884 µM).

And the MIC [4]?
The MIC was 0.5 µg/mL (≈ 0.884 µM).

What about the MIC [5] of the same compound?
Its MIC is 0.063 µg/mL (≈ 0.111 µM).

What about the MIC [6] of the same compound?
The MIC was 0.063 µg/mL (≈ 0.111 µM).

What about the MIC [7] of the same compound?
The MIC was 0.031 µg/mL (≈ 0.0548 µM).

And the MIC [8]?
Its MIC is 0.031 µg/mL (≈ 0.0548 µM).

What about the MIC [9] of the same compound?
Its MIC is 0.016 µg/mL (≈ 0.0283 µM).

What about the MIC [10] of the same compound?
Its MIC is 0.5 µg/mL (≈ 0.884 µM).

And the MIC [11]?
Its MIC is 0.031 µg/mL (≈ 0.0548 µM).

What about the MIC [12] of the same compound?
Its MIC is 2 µg/mL (≈ 3.54 µM).

What about the MIC [13] of the same compound?
The MIC was 2 µg/mL (≈ 3.54 µM).

What about the MIC [14] of the same compound?
Its MIC is 0.031 µg/mL (≈ 0.0548 µM).

And the MIC [15]?
Its MIC is 16 µg/mL (≈ 28.3 µM).

And the MIC [16]?
Its MIC is 2 µg/mL (≈ 3.54 µM).

What about the MIC [17] of the same compound?
Its MIC is 4 µg/mL (≈ 7.07 µM).

What about the MIC [18] of the same compound?
Its MIC is 1 µg/mL (≈ 1.77 µM).

And the MIC [19]?
Its MIC is 1 µg/mL (≈ 1.77 µM).

What about the MIC [20] of the same compound?
The MIC was 0.5 µg/mL (≈ 0.884 µM).

What about the MIC [21] of the same compound?
Its MIC is 0.5 µg/mL (≈ 0.884 µM).

What about the MIC [22] of the same compound?
Its MIC is 0.5 µg/mL (≈ 0.884 µM).

What about the MIC [23] of the same compound?
The MIC was 0.25 µg/mL (≈ 0.442 µM).

And the MIC [24]?
The MIC was 0.5 µg/mL (≈ 0.884 µM).

What about the MIC [25] of the same compound?
Its MIC is 32 µg/mL (≈ 56.6 µM).
